# Results published in patent US9931373B2, “Method of reducing cancer cell proliferation by administering recombinant alpha-fetoprotein” (priority 2005, dated 2018).
# T1: rhAFP (Homo sapiens, UniProt P02771)
# T1 construct: pre-pro secretion region of yeast MFalpha1 (secretion leader, removed on secretory processing) (N, cleaved yes); made in house; host or cells: Saccharomyces cerevisiae YBS723/pKX (secreted into the culture liquid)
# T1 sequence (P02771 20-609): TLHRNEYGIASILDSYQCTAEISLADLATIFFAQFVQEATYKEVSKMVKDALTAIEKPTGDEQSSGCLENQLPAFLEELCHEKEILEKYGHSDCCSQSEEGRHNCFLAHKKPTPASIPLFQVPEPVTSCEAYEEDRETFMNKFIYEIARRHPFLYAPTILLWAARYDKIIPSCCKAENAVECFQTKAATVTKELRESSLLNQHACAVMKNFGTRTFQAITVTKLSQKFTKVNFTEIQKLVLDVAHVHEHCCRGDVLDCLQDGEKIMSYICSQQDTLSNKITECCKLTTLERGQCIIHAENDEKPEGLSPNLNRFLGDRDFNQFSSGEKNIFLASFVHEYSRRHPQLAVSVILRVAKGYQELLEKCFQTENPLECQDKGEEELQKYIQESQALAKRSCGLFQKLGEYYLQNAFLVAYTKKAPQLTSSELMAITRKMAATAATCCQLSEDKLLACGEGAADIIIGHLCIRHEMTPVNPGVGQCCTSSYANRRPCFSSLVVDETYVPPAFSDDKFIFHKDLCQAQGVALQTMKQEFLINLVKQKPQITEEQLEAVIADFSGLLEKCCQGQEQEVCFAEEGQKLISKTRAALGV
# Tests used:
# [1] = system: Human breast cancer cells MCF-7; assay: Combined treatment of MCF-7 cells with chemotherapeutic agents and rhAFP, MTT or H3-thymidine; format: cell-based; conditions: MCF-7, 72 hrs, agent with addition of 0.1 mg/ml of rhAFP, suboptimal doses, FIG. 8
# Procedure: Cell proliferation was assessed by H3-thymidine incorporation assay or by MTT technique.
# Human breast cancer cells MCF-7 were plated onto 96-well plastic wells (Costar) in 10^4 cells/ml in DMEM medium with addition of 2% fetal calf serum and were treated during 72 hrs with one of chemotherapeutic agents: doxorubicin, cysplatin, etoposide, metatrexate or those with addition of 0.1 mg/ml of rhAFP. Cytotoxic effect was estimated by MTT assay or H3-thymidine incorporation assay. It was observed synergistic enhance of the total tumor-suppressive effect in suboptimal doses of all agents in the presence of AFP (FIG. 8).
# rhAFP = target: T1, rhAFP; assay: Formation of noncovalent complexes with rhAFP, absorption spectra and Sephadex G-25; format: binding; conditions: steady-state absorption; curcumin 30 μM, rhAFP 5 μM to 40 μM, FIG. 12A
# Procedure: Absorption spectra of aqueous solutions containing 30 μM of curcumin and various doses of rhAFP: (1) 30 μM of curcumin; (2) 30 μM of curcumin+20 μM rhAFP; (3) 30 μM of curcumin+40 μM rhAFP. Panel at the top (A): absorption spectra of non-covalent complex of rhAFP/curcumin after chromatography through a column with Sephadex G-25.
# Phytochemicals are nonnutritive components of plants that are currently being studies in chemoprevention and combined therapy of cancer. […] Other plant-derived tumoricidal compounds—flavonoids, isoflavonoids, flavons, flavanones, isoflavanones have been widely investigated for their ability to suppress tumor growth in vitro. Some of them display significant homology with steroids and mimic reveal antagonistic or agonistic activity in mammals. Ability of AFP to bind isoflavanoids was documented by various researches (Deutsch H. F, 1991, Adv. Canc. Res. 56, 253-312). […] The absorption spectra of solutions containing curcumin and rhAFP were followed keeping concentration of curcumin constant 30 μM and rhAFP varied from 5 μM to 40 μM. […] FIG. 12A gives the absorption spectral changes in curcumin in the presence of rhAFP in the wavelength range of 250-550 nm. […] Whereas after addition of rhAFP the maximum of absorbance of curcumin blue-shifted from 426 to 350 nm (curve 3). […]
# tumor cells = assay: Combined administration of rhAFP and plant-derived compounds, suppression of tumor cell growth; format: cell-based; conditions: FIG. 12B, C
# [2] = system: syngeneic leukemia cells P388; assay: Syngeneic acute leukemia P388 in BDF1 mice, survival over 30 days; format: in vivo; conditions: for T (survival, days): single injection
# Text: We have studied the effect of combined treatment with AFP+Dox of acute leukemia in mice BDF1 with transplanted intrapleurally syngeneic P388 leukemia cells. BDF-1 mice (84 male, 28 mice per treatment) were implanted with lethal dose of 12×10^6 syngeneic leukemia cells P388 in the pleural region. Animals were subjected to monotherapy with Dox and combined therapy with rhAFP/Dox upon simultaneous single injection of drugs in various doses. Animal survival was compared over 30 days.
# [3] = system: cells of B-cellular lymphoma Raji; assay: Suppression of growth of Raji cells in vitro, [H3]-thymidine incorporation; format: cell-based, human; conditions: 12 hours with AFP, dose-dependent, FIG. 5
# Procedure: The functional activity of rAFP and the modified forms thereof were determined according to its capability of suppressing the growth of cells of B-cellular lymphoma Raji in the culture in vitro, as earlier described (Semenkova, L. 1997, Tumor Biol. 18, 261-274; Dudich E. I., et al., 1998, Tumor Biol. 198, 30-40). Preliminarily washed by a fresh medium, Raji cells were placed into each cell of a 96-alverolar plate according to 5×10^3 in 0.1 ml of a medium RPMI-1640 in the presence of a 10% fetal calf serum, then different doses of AFP were added for 12 hours. Proliferation of the cells was measured by a standard method by the introduction of [H^3]-thymidine during the last 4 hours of culturing. For comparison, the dose-dependent reactivity was studies for two samples of AFP of embryonal origin embrAFP and yeast rAFP (FIG. 5). […] Similarly, in order to determine the activity to preparations on the base of AFP in vitro, any other lines of cancer cells may be used that are sensitive to the suppressive action of AFP, such as human hepatocarcinoma HepG2, breast cancer MCF-7, prostate cancer LnCap, myeloblastoma U-937 and others (Semenkova, L. 1997, Tumor Biol. 18, 261-274; Dudich E. I., et al., 1998, Tumor Biol. 198, 30-40).
molecule,measurement,setting,value
N.N.[Cl][Pt][Cl] [cysplatin],total tumor-suppressive effect of agent together with rhAFP,[1],significant synergistic tumor-suppression
COc1cc(/C=C/C(=O)CC(=O)/C=C/c2ccc(O)c(OC)c2)ccc1O [curcumin],formation of noncovalent complexes with rhAFP,rhAFP,form noncovalent complexes
same,total tumor suppressive effect upon combined treatment with rhAFP,tumor cells,significant enhance of the total tumor suppressive effect
COc1cc([C@@H]2c3cc4c(cc3[C@@H](O[C@@H]3O[C@@H]5CO[C@@H](C)O[C@H]5[C@H](O)[C@H]3O)[C@H]3COC(=O)[C@H]23)OCO4)cc(OC)c1O [etoposide],total tumor-suppressive effect of agent together with rhAFP,[1],significant synergistic tumor-suppression
"COc1cccc2c1C(=O)c1c(O)c3c(c(O)c1C2=O)C[C@@](O)(C(=O)CO)C[C@@H]3O[C@H]1C[C@H](N)[C@H](O)[C@H](C)O1 [Dox, doxorubicin]",Survival more 30 days,[2]; Dox 3.0 mg/kg,0
same,T/C %,[2]; Dox 3.0 mg/kg,303%
same,"T (survival, days)",[2]; Dox 3.0 mg/kg,[13.9/17.1] 19.7 days
same,Survival more 30 days,[2]; Dox 5.0 mg/kg,0
same,T/C %,[2]; Dox 5.0 mg/kg,315%
same,"T (survival, days)",[2]; Dox 5.0 mg/kg,[17.0/22.4] 20.5 days
same,Survival more 30 days,[2]; Dox 1.o mg/kg,0
same,T/C %,[2]; Dox 1.o mg/kg,238%
same,"T (survival, days)",[2]; Dox 1.o mg/kg,6.5 [6.2/6.8] 15.5 days
same,total tumor-suppressive effect of agent together with rhAFP,[1],significant synergistic tumor-suppression
CN(Cc1cnc2nc(N)nc(N)c2n1)c1ccc(C(=O)N[C@@H](CCC(=O)O)C(=O)O)cc1 [metatrexate],total tumor-suppressive effect of agent together with rhAFP,[1],significant synergistic tumor-suppression
O=c1c(-c2ccc(O)cc2)coc2cc(O[C@@H]3O[C@H](CO)[C@@H](O)[C@H](O)[C@H]3O)cc(O)c12 [genistin],formation of noncovalent complexes with rhAFP,rhAFP,form noncovalent complexes
same,total tumor suppressive effect upon combined treatment with rhAFP,tumor cells,significant enhance of the total tumor suppressive effect
"embrAFP: purified AFP of embryonal origin, obtained from embryonic serum (protein, UniProt P02771 19-609, looked up) Alpha-fetoprotein: RTLHRNEYGIASILDSYQCTAEISLADLATIFFAQFVQEATYKEVSKMVKDALTAIEKPTGDEQSSGCLENQLPAFLEELCHEKEILEKYGHSDCCSQSEEGRHNCFLAHKKPTPASIPLFQVPEPVTSCEAYEEDRETFMNKFIYEIARRHPFLYAPTILLWAARYDKIIPSCCKAENAVECFQTKAATVTKELRESSLLNQHACAVMKNFGTRTFQAITVTKLSQKFTKVNFTEIQKLVLDVAHVHEHCCRGDVLDCLQDGEKIMSYICSQQDTLSNKITECCKLTTLERGQCIIHAENDEKPEGLSPNLNRFLGDRDFNQFSSGEKNIFLASFVHEYSRRHPQLAVSVILRVAKGYQELLEKCFQTENPLECQDKGEEELQKYIQESQALAKRSCGLFQKLGEYYLQNAFLVAYTKKAPQLTSSELMAITRKMAATAATCCQLSEDKLLACGEGAADIIIGHLCIRHEMTPVNPGVGQCCTSSYANRRPCFSSLVVDETYVPPAFSDDKFIFHKDLCQAQGVALQTMKQEFLINLVKQKPQITEEQLEAVIADFSGLLEKCCQGQEQEVCFAEEGQKLISKTRAALGV","cytostatic activity, inhibition of growth of Raji cells",[3],expressed cytostatic activity
